In brackets after ≈: the same amount, converted by molar mass.
Assay: Water solubility determination (HPLC)
Type: physicochemical
Settings: thermodynamic from solid, ultra-pure water, room temperature
Method: at room tem p eratu re fo r 2 h. After centrifu gation at 3000×g fo r 10 min, the supernatant wa s transferred into a sample vial and dried with Sp ee d vac (Fish er Scientific). So lu ti on s fo r standards were prepared by using a series of different concentrations of ursolic acid (i.e., 0.1, 0.5, 1.0, 2. 0, 5.0 ug /mL in methanol ). Ea c h sample was in jec ted fo r analysis by liq uid chromatography‐tan dem mass spectrometry (UPLC‐MS/MS) with multip le react io n monitor ing (MRM) mode. (2) UPLC‐MS/MS analysis Sa m ples were analyzed wi t h Acquity UPLC syste m (Waters) cou ple d wi t h a Q‐TRAP 6500 mass spectrometer (Sciex). Spe cifically, 5 μL of each sample wa s loaded onto a C18 column (Waters Acquity UPLC BEH C18 1.7μm, 2.1mm x 50 mm). […]
Mass spectra were recorded with Analyst TF 1.6.2 software in th e MRM mode (Q1 mass: 455 Da, Q3 mass:455.1 Da , Time:100 ms, CE: ‐20, DP: ‐50: EP:‐ 7, CXP: ‐12). (3) Data analysis: Data files we re analyzed with quantitated with the “Quantitation Method” in th e An al yst software […]
slid e at a flow ra te of 25 μL/ min wi th 110 s contac t time and 250 s dissociation time. Th e background re s p o ns e was recorded using th e refere nce flow channel, and the background data wa s subtracted from the data fro m each injection sample. […]

solubility at 24 h: 39.7 µg/mL (≈ 69.5 µM)
Compound: C[C@H]1[C@H](C)CC[C@]2(C(=O)NCC(=O)N(C)CCO)CC[C@]3(C)C(=CC[C@@H]4[C@@]5(C)CC[C@H](O)C(C)(C)[C@@H]5CC[C@]43C)[C@H]12 [UAMMC9]

Source: publication PMC8710297, “Identification of potent SENP1 inhibitors that inactivate SENP1/JAK2/STAT signaling pathway and overcome platinum drug resistance in ovarian cancer” (Clinical and Translational Medicine, 2021)
